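A five-concentration, 48-hour dose response in 96-well plates underlies each endpoint, interpolated linearly between surrounding concentrations. GI50 marks 50% less growth.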 The source made the active and inactive calls. No stated cut-off is given here; in the data, active = GI50 up to about 1.1 µM and inactive = higher.

These results are taken from ChEMBL document CHEMBL1201862, “PubChem BioAssay data set” (2004).

Holding throughout (assay): NCI anticancer screen, dose series, 48 h
For test [1], the system named is A498.
Test [2] has as its system NCI/ADR-RES.
In test [3] the test system is COLO 205.
In test [4] the test system is M14.
Test [5] concerns SK-MEL-2.
Test [6] deals with SK-MEL-28.
Test [7] deals with LOX IMVI.
Test [8] deals with OVCAR-5.
Test [9] has as its system OVCAR-4.
The test system of test [10] is SF-268.
In test [11] the test system is U-251.
Test [12] concerns SN12C.
Test [13] relates to A549.
In test [14] the test system is BT-549.
In test [15] the test system is Malme-3M.
The test system of test [16] is MOLT-4.
Test [17] deals with HOP-92.
Test [18] concerns KM12.
Test [19] deals with SF-539.

As for `O=C(Nc1ccc2nc(-c3ccccc3)cn2c1)Oc1ccccc1`, the GI50 in test [1] is 71.3 µM (inactive); in [2] it was 33.8 µM (inactive); in test [3], 48.6 µM (inactive); in [4], 39.2 µM (inactive); in test [5] it was 46.7 µM (inactive); in [6], > 100 µM (inactive). Besides, the GI50 in test [7] was 52 µM (inactive); in test [8], 78.2 µM (inactive); in [9] it was 78.3 µM (inactive); in test [10] it was > 100 µM (inactive); in [11] it was 52.7 µM (inactive); in [12] it was 66.8 µM (inactive). The GI50 was 55.5 µM (inactive) in test [13]; > 100 µM (inactive) in test [14]; 98.2 µM (inactive) in [15]; 40.6 µM (inactive) in test [16]; > 100 µM (inactive) in test [17]; 24.9 µM (inactive) in test [18].

As to `O=C1C=CC2(O[C@H](c3ccccc3)[C@@H](c3ccccc3)O2)C(SC(=O)c2ccccc2)C1` (stereo partly specified), the GI50 was 7.71 µM (inactive) in [1]; 1.57 µM (inactive) in [2]; 1.4 µM (inactive) in test [3]; 1.75 µM (inactive) in test [19]; 1.33 µM (inactive) in test [4]; 1.72 µM (inactive) in test [5]. The GI50 was 1.79 µM (inactive) in test [6]; 1.12 µM (inactive) in [7]; 1.69 µM (inactive) in test [8]; 1.63 µM (inactive) in test [9]; 1.3 µM (inactive) in test [10]; 1.56 µM (inactive) in [11]. The GI50 is 2.33 µM (inactive) in test [12]; 4.49 µM (inactive) in test [13]; 0.433 µM (active) in test [14]; 2.27 µM (inactive) in test [15]; 0.35 µM (active) in [16]; 2.27 µM (inactive) in [18].

`O=C(Nc1nnc(-c2ccccc2)o1)C(SC(=S)N1CCCC1)c1ccccc1` (stereo unspecified): the GI50 in test [1] is 27.1 µM (inactive); in [2], 6.67 µM (inactive); in test [3], 37.2 µM (inactive); in [19] it was 34.2 µM (inactive); in test [4] it was 23.6 µM (inactive); in test [5], 25.5 µM (inactive). The GI50 in test [6] was 49 µM (inactive); in [7], 14.1 µM (inactive); in test [8], 36.4 µM (inactive); in test [9], 38.7 µM (inactive); in test [11], 23.3 µM (inactive); in test [12] it was 16.7 µM (inactive). Also, the GI50 was 26.4 µM (inactive) in test [13]; 23.1 µM (inactive) in [14]; 45 µM (inactive) in test [15]; 5 µM (inactive) in [16]; 32.8 µM (inactive) in test [18].

Turning to `CC(Br)CN(CC(C)Br)c1ccc2c(c1)Cc1ccccc1-2` (stereo unspecified), the GI50 is 13 µM (inactive) in [1]; 13.5 µM (inactive) in [2]; 14.5 µM (inactive) in test [3]; 11.6 µM (inactive) in [4]; 15.7 µM (inactive) in [5]; 18.9 µM (inactive) in test [6]. For the same compound, the GI50 was 8.11 µM (inactive) in [7]; 18.9 µM (inactive) in [8]; 13.1 µM (inactive) in test [9]; 10.2 µM (inactive) in test [10]; 10.7 µM (inactive) in test [11]; 11.4 µM (inactive) in [12]. Besides, the GI50 in [13] was 12.1 µM (inactive); in test [14] it was 16.7 µM (inactive); in test [15], 11.7 µM (inactive); in [16], 2.34 µM (inactive); in [17], 7.62 µM (inactive); in test [18], 16.5 µM (inactive).
